# Assay results from patent publication US11957680B2, “Pyruvate kinase activators for use in treating blood disorders” (Agios Pharmaceuticals, Inc., priority 2017, dated 2024).
# Legend:
# [1] = molecular target: T1, wild type PKR (Homo sapiens, UniProt P30613); test: Cell based ATP assay in purified red blood cells (Cell-Titer-Glo); set-up: endogenous in cells; host or cells: purified red blood cells from healthy volunteers; conditions: overnight at 37° C., ATP levels; for EC50 / Cell based ATP assay: Table 4, AC50, RBCs
# T1 sequence (P30613 whole entry): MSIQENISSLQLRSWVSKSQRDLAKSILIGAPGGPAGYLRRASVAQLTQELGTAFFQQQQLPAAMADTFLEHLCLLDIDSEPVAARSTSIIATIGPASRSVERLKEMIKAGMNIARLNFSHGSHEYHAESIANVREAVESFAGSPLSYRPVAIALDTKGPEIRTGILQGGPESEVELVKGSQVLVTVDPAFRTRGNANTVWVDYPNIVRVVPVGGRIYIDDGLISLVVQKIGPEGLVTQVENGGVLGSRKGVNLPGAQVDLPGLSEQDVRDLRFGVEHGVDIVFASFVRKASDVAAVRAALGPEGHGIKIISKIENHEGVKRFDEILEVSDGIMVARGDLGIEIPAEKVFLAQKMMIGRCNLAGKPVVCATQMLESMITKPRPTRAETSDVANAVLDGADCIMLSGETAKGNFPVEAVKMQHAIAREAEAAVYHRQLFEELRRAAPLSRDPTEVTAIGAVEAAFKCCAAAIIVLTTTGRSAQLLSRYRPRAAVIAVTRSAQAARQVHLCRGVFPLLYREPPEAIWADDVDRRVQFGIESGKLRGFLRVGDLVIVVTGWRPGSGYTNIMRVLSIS
# Method: Example 16. Red Blood Cell (RBC) Purification
# Fresh blood drawn from healthy volunteers into K2EDTA tubes was collected. Whole blood was pelleted by spinning at 500 g for 10 minutes. Cut transfusion bag port off of Purecell leukocyte reduction neofilter (Fisher NC0267633) one (1) inch above filter. Attach a 10 ml syringe barrel to the remaining cut tubing attached to neofilter. The plasma layer was removed from the pellet of the whole blood and the pellet was resuspended in 2× volume of phosphate buffered saline (PBS). Transfer 9 ml re-suspended blood cell pellet to prepared 10 ml syringe that is attached to the neofilter. Allow whole blood to gravity flow through filter until all fluid runs through upper tubing into filter disc. Add plunger to the syringe, remove syringe from clamp and invert the filter, then plunge air through the syringe filter system. Using a new 5 ml syringe, remove filtered RBCs from the bag by the syringe port and transfer purified RBCs to a 5 ml snap cap tube that has been incubated on ice. Spin 5 ml snap cap tube at 500 g for 10 minutes at 15 C, aspirate supernatant and resuspend in AGAM (1×PBS, 1% glucose, 170 mg/L adenine, 5.25 g/L mannitol) at a density of 4×10^9 cells/mL.
# Example 17. Cell Based ATP Assay
# For cell based ATP assays, the compound as described herein was prepared in 100% DMSO as a 10 mM stock. Serial dilutions (1:4) were performed in 96-well V-bottom storage plate and then added 1:100 to 96-well V-bottom plates containing AGAM. RBCs were diluted in AGAM media to a density of 1×10^7 cells/mL before added 90 μL/well to black clear bottom assay plates (final compound concentration at 0.1% DMSO concentration). Assay plates were sealed using aluminum foil seals and incubated overnight at 37° C. in a humidified chamber. ATP levels were read out using Cell-Titer-Glo (Promega).
# [2] = molecular target: PKR K410E (Homo sapiens, UniProt P30613, K410E); test: PKR mutant assay (K410E), AC50, LDH/NADH-coupled, absorbance at 340 nm; type: biochemical; conditions: for EC50: Table 4, AC50, enzyme assay; for AC50: Table 2, enzyme assay
# PKR K410E, sequence (P30613 whole entry K410E): as the sequence (P30613 whole entry) above, with K410E counted along it
# Method: (§1) Example 11. PKR Mutant Assay
# (§2) PKR or PKR mutant enzyme solution was diluted into a reaction mix, which contains 1× buffer (100 mM KCl, 50 mM Tris pH 7.5, 5 mM MgCl2) as well as PEP (conc depends on enzyme), 180 μM NADH, 0.5 units LDH, 1 mM DTT, 0.03% BSA; final assay concentrations after 1.11 fold dilution are indicated.
# (§3) 2 μL of test compound was added into wells first, and then 180 μL reaction mix was added.
# (§4) Reactions mixture with test compound was assembled except for ADP, and plates were stored for 60 minutes at room temperature.
# (§5) 20 uL ADP was added to start reaction at room temperature and reaction progress was measured as changes in absorbance at 340 nm wavelength at room temperature.
# (§6) Test Compound Preparation:
# (§7) Test compound stock was made at 100× concentration in 100% DMSO (10 mM)
# (§8) 1 to 3 dilutions were made for 11 points (i.e. 50 μl of first concentration added to 100 μl 100% DMSO to yield 3.33 mM, 50 μl of this added to 100 μl DMSO to yield 1.11 mM, and so forth) • 1 to 100 dilution into assay (2 μl in 200 μl) yielded starting concentration of 100 μM, decreasing 3 fold for 11 points.
# (§9) Assay Buffer: 100 mM KCl, 50 mM Tris 7.5, 5 mM MgCl2, 1 mM DTT, 0.03% BSA
# (§10) Reaction Mixture: PKR mutant enzyme: 40-400 ng/well; ADP: 0.2-1.65 mM; PEP: 0.1-0.5 mM; NADH: 180 μM; LDH: 0.5 units (Sigma #59023); DTT: 1 mM; BSA: 0.03%.
# [3] = molecular target: PKR R510Q (Homo sapiens, UniProt P30613, R510Q); test: PKR mutant assay (R510Q), AC50, LDH/NADH-coupled, absorbance at 340 nm; type: biochemical; conditions: for EC50: Table 4, AC50, enzyme assay, read-out: PK R510Q; for AC50: read-out: PK R510Q AC50
# PKR R510Q, sequence (P30613 whole entry R510Q): as the sequence (P30613 whole entry) above, with R510Q counted along it
# Method: as §1, §2, §3, §4, §5, §6, §7, §8, §9, §10
# [4] = molecular target: T1, wild type PKR; test: PKR (wild type) enzyme AC50 assay, LDH/NADH-coupled, absorbance at 340 nm; type: biochemical; conditions: for EC50: Table 4, AC50, enzyme assay, read-out: PKR WT; for AC50: Table 2, enzyme assay, read-out: PKR WT AC50
# Method: as §1, §2, §3, §4, §5, §6, §7, §8, §9, §10
SMILES,EC50 [1] [µM],EC50 [2] [µM],EC50 [3] [µM],EC50 [4] [µM],"AC50 ([1]; Table 2, RBCs) [µM]",AC50 [2] [µM],"AC50 ([3]; Table 2, enzyme assay) [µM]",AC50 [4] [µM],"Cell based ATP assay AC50 ([1]; Table 2, RBCs)","PK R510Q AC50 ([3]; Table 2, enzyme assay)",Cell based ATP assay [1]
Cn1c2nc(Cc3cc[nH]n3)sc2c2cnn(Cc3ccc4c(n3)NCC4)c(=O)c21 [Compound 384],≤ 1,< 0.3,< 0.3,< 0.3,,,,,,,
Cn1c2nc(Cc3ccon3)sc2c2cnn(Cc3cccc4[nH]ncc34)c(=O)c21 [Compound 166],,,,,> 1,> 0.8,0.301 to 0.8,0.301 to 0.8,,,
Cn1c2nc(Cc3cc[nH]n3)sc2c2cnn(Cc3ccc4cc(F)[nH]c4n3)c(=O)c21 [Compound 391],≤ 1,< 0.3,< 0.3,< 0.3,,,,,,,
Cc1nc2c(s1)c1cnn(CCCO)c(=O)c1n2C [Compound 46],,,,,> 1,> 0.8,> 0.8,> 0.8,,,
CSc1nc2c(s1)c1cnn(Cc3ccnc(=O)[nH]3)c(=O)c1n2C [Compound 96],,,,,,> 0.8,,> 0.8,No Fit,No Fit,
CNc1ccc(Cc2nc3c(s2)c2cnn(Cc4cccc5[nH]ncc45)c(=O)c2n3C)cc1 [Compound 109],,,,,≤ 1,< 0.3,< 0.3,< 0.3,,,
Cc1nc2c(s1)c1cnn(Cc3ccc(O)cc3)c(=O)c1n2C [Compound 16],,,,,,< 0.3,< 0.3,< 0.3,,,
COc1cccc(Cn2ncc3c4sc(Cc5ccc(Cl)cc5)nc4n(C)c3c2=O)c1 [Compound 31],,,,,≤ 1,0.301 to 0.8,< 0.3,< 0.3,,,
Cn1c2nc(Cc3cc[nH]n3)sc2c2cnn(Cc3cccc4[nH][nH]c(=O)c34)c(=O)c21 [Compound 307],≤ 1,< 0.3,< 0.3,< 0.3,,,,,,,
Cn1c2nc(Cc3cncs3)sc2c2cnn(Cc3cccc4[nH]ncc34)c(=O)c21 [Compound 211],≤ 1,< 0.3,< 0.3,< 0.3,,,,,,,
Cn1c2nc(Cc3cc[nH]n3)sc2c2cnn(Cc3ccc4c(n3)NC(=O)C4)c(=O)c21 [Compound 387],> 1,< 0.3,< 0.3,0.301 to 0.8,,,,,,,
CSc1nc2c(s1)c1cnn(Cc3csc(-n4c(C)ccc4C)n3)c(=O)c1n2C [Compound 129],,,,,> 1,> 0.8,> 0.8,> 0.8,,,
Cn1c2nc(Cc3cc[nH]n3)sc2c2cnn(CCc3cscn3)c(=O)c21 [Compound 401],≤ 1,< 0.3,< 0.3,< 0.3,,,,,,,
Cn1c2nc(Cc3cc(C(F)(F)F)[nH]n3)sc2c2cnn(Cc3cccc4[nH]ncc34)c(=O)c21 [Compound 160],,,,,≤ 1,0.301 to 0.8,0.301 to 0.8,0.301 to 0.8,,,
Cn1ccc(Cc2nc3c(s2)c2cnn(Cc4cccc5[nH]ncc45)c(=O)c2n3C)n1 [Compound 157],,,,,≤ 1,< 0.3,< 0.3,< 0.3,,,
COc1cccc(Cn2ncc3c4sc(C=O)nc4n(C)c3c2=O)c1 [Compound 38],,,,,> 1,< 0.3,< 0.3,< 0.3,,,
Cc1nc2c(s1)c1cnn(Cc3cccc(N)c3)c(=O)c1n2C [Compound 14],,,,,≤ 1,< 0.3,< 0.3,< 0.3,,,
Cn1c2nc(Cc3ccccn3)sc2c2cnn(CC3CCOCC3)c(=O)c21 [Compound 403],,> 0.8,> 0.8,> 0.8,,,,,,,No Fit
Cn1c2nc(Cc3cc[nH]n3)sc2c2cnn(Cc3ccc4ccccc4c3)c(=O)c21 [Compound 210],≤ 1,< 0.3,< 0.3,< 0.3,,,,,,,
Cc1nc2c(s1)c1cnn(Cc3cccc(F)c3)c(=O)c1n2C [Compound 6],,,,,> 1,> 0.8,> 0.8,> 0.8,,,
CC(=O)NC(c1cc[nH]n1)c1nc2c(s1)c1cnn(Cc3cccc4[nH]ncc34)c(=O)c1n2C (centres unmarked) [Compound 178],,,,,> 1,> 0.8,> 0.8,> 0.8,,,
Cn1c2nc(Cc3cc[nH]n3)sc2c2cnn(Cc3ccc4ccccc4n3)c(=O)c21 [Compound 111],,,,,≤ 1,< 0.3,< 0.3,< 0.3,,,
COc1cccc(Cn2ncc3c4sc([S+]([O-])c5ccccc5)nc4n(C)c3c2=O)c1 (centres unmarked) [Compound 35],,,,,> 1,0.301 to 0.8,0.301 to 0.8,0.301 to 0.8,,,
Cn1c2nc(Cc3cccc4cn[nH]c34)sc2c2cnn(Cc3cc[nH]n3)c(=O)c21 [Compound 241],≤ 1,< 0.3,< 0.3,< 0.3,,,,,,,
Cn1c2nc(Cc3n[nH]cc3F)sc2c2cnn(Cc3cccc4[nH]ncc34)c(=O)c21 [Compound 236],≤ 1,< 0.3,< 0.3,< 0.3,,,,,,,
Cn1c2nc([S+](C)[O-])sc2c2cnn(Cc3ccnc(N)c3)c(=O)c21 (centres unmarked) [Compound 78],,,,,≤ 1,> 0.8,> 0.8,> 0.8,,,
CCn1c2nc(Cc3cc[nH]n3)sc2c2cnn(Cc3ccccc3)c(=O)c21 [Compound 402],,> 0.8,> 0.8,> 0.8,,,,,,,No Fit
COc1cccc(Cn2ncc3c4sc(C(F)c5ccccc5)nc4n(C)c3c2=O)c1 (centres unmarked) [Compound 12],,,,,,< 0.3,< 0.3,< 0.3,,,
COc1ccc(Cn2ncc3c4sc(C)nc4n(C)c3c2=O)cc1 [Compound 2],,,,,≤ 1,< 0.3,,< 0.3,,,
